Measured values: patent US12178837B2, “Composition for skin-whitening or preventing or improving skin wrinkles comprising green tea extract which has modified amounts of ingredients” (AMOREPACIFIC CORPORATION, priority 2019, dated 2024)

Tested on: MMP-1 (matrix metalloproteinase-1)
Assay: MMP-1 inhibition activity: ELISA of MMP-1 produced by aged human dermal fibroblasts
Type: cell-based
Conditions: EGCG + GCG total 3 μg/ml at the given weight ratio
Protocol: The evaluation on MMP-1 inhibition activity was conducted in order to verify the effects of the green tea extracts of Samples 1 and 2 of Example 1 in inhibiting the production of MMP-1, which is skin tissue breakdown enzyme, in human skin fibroblast of aged human skin and in inhibiting the production of MMP-1 according to the weight ratio of EGCG and GCG, and the amount of GCG. To be specific, the evaluation was conducted through the following steps.
Normal human dermal fibroblast (NHDF; Lonza, Switzerland) was cultured in a DMEM medium (Dulbecco's modified Eagle's Medium, Gibco 1210-0038) comprising 10% of fetal bovine serum, and the culturing was all performed in a 37° C., 5% CO2 culture medium. Cells that had 6-9 sub-culture frequencies were used as young cells, and aged dermal fibroblasts were obtained by sub-culturing 37 times in such a manner that the number of cells was calculated for every sub-culture and then ⅕ of the total number of cells were newly cultured. The aged dermal fibroblasts were treated with EGCG and GCG depending on the ratio of EGCG:GCG and the concentration of GCG, or treated with Sample 1 or Sample 2.
In order to verify the amount of MMP-1 produced, the enzyme-linked immunosorbent assay (ELISA) method was used (Amersham, USA). The culture medium of the cells treated with the samples at the step 1-1 was collected and the supernatant was isolated by centrifuging at 1000×g, and then the culture medium was put into a 96-well plate coated with an MMP-1 antibody, and then a secondary antibody (horse reddish peroxidase, HRP) was reacted at room temperature for 1 hour, and washed with 100 μL PBS. The amount of MMP-1 produced was confirmed by measuring absorbance at a 490 nm wavelength after reaction and confirming its degree of color formation using a TMB substrate solution (Pierce, USA), and the MMP-1 inhibition activity (%) was calculated using the following equation.
MMP-1 inhibition activity (%)=(O.D. of the group treated with the sample at 490 nm/O.D. of the group not treated with sample at 490 nm)×100

| Molecule | MMP-1 inhibition activity (%) Processed after 24 hours [%] | MMP-1 inhibition activity (%) Processed immediately [%] |
| --- | --- | --- |
| (−)-epigallocatechin gallate [EGCG] | 6 ± 1.0 | 56 ± 9.7 |
| O=C(O[C@@H]1Cc2c(O)cc(O)cc2O[C@H]1c1cc(O)c(O)c(O)c1)c1cc(O)c(O)c(O)c1 [GCG, (−)-gallocatechin gallate] | 10 ± 1.0 | 55 ± 9.2 |
